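Where inhibition never reached the appropriate level, the endpoint shown equals the highest concentration tested. Otherwise, values were interpolated linearly from a five-concentration, 48-hour dose response in 96-well plates. Abbreviation: GI50, concentration required for 50% inhibition of growth. TGI: concentration producing complete growth inhibition.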

This is an account of results in PubChem BioAssay (NCI).

Assay in all cases: growth of human tumour cells (NCI), 48 h
For experiment [1], the system named is DLD-1 colon.
Experiment [2] relates to M19-MEL melanoma.
The test system of experiment [3] is DMS 114 small cell lung.
Experiment [4] relates to LXFL 529 NSCLC.
Experiment [5] has as its system SNB-78 CNS.
The test system of experiment [6] is XF 498 CNS.
Experiment [7] concerns DMS 273 small cell lung.
Experiment [8] relates to RXF-631 renal.
In experiment [9] the test system is MDA-N.

Consider `NCCCNCc1c2ccccc2c(CNCCCN)c2ccccc12`, for which the TGI in experiment [1] was > 100 µM; in experiment [2], 35.4 µM; in experiment [3], 37.8 µM; in experiment [4], 24.5 µM; in experiment [5], 60.1 µM.
Take `CC1CCCc2c1n[nH]c2CC1CC(=O)NC(=O)C1` (stereo not given): the TGI in [6], in experiment [7], in experiment [1], in experiment [8], in [2] and in experiment [3] was > 100 µM in each case. In addition, the TGI in experiment [4] and in experiment [5] was > 100 µM each time.
As for `COC(=O)CCCCCOS(=O)(=O)c1ccc(C)cc1`, the TGI in experiment [6], in experiment [7], in experiment [1], in [8], in [2] and in [3] was > 100 µM in each case. Moreover, the TGI in experiment [4] and in experiment [5] was > 100 µM throughout.
As to `OCC1CC2C=CCC(C2)C1` (stereo not given), the TGI in experiment [6], in [7], in [1], in experiment [2], in experiment [3] and in experiment [4] was > 100 µM in each case. Besides, the TGI in experiment [5] was > 100 µM.
`C[N+]1(CCNP(=S)(NCC[N+]2(C)Cc3c(ccc4c3OCO4)C3C2c2cc4c(cc2C[C@@H]3O)OCO4)NCC[N+]2(C)Cc3c(ccc4c3OCO4)C3C2c2cc4c(cc2C[C@@H]3O)OCO4)Cc2c(ccc3c2OCO3)C2C1c1cc3c(cc1C[C@H]2O)OCO3` (stereo not given in full): the GI50 in experiment [6] is 0.846 µM; in [1], 1.68 µM; in experiment [2], 2.04 µM; in experiment [4], 2.75 µM; in experiment [5], 2.7 µM. Further, the TGI in experiment [7] was < 0.00191 µM.
As to `CCCC[C@H](CCc1ccccc1)N(C(=O)OC)N1CCC[C@H]1COC`, the TGI amounted to 28.5 µM in experiment [6]; 35.6 µM in experiment [7]; 34.8 µM in experiment [1]; 32.4 µM in [8]; 40.4 µM in [2]; 30.2 µM in experiment [3]. Further, the TGI is 39.6 µM in experiment [4] and 47.3 µM in [5].
On to `CSc1ccc(Cc2cc(C(C)(C)C)cc(C(C)(C)C)c2O)cc1`, for which the TGI in [6] is 31.8 µM; in experiment [7] it was 26.7 µM; in experiment [1], 27.1 µM; in experiment [8], 29.4 µM; in experiment [2], 31.1 µM; in [3], 25.7 µM. Besides, the TGI in experiment [4] was determined as 26.9 µM; in [5] it was 28.8 µM.
With `Oc1ccc(Br)cc1C=NC1CCCCC1`, in experiment [9], the TGI is > 100 µM.
For the compound `COc1ccc(/C=C/c2cc(OC)c(OC)c(OC)c2)cc1OC`, the TGI in experiment [6], in experiment [7], in [1], in experiment [8], in [3] and in experiment [4] was > 100 µM in each case. Further, the TGI in [5] came to 91.9 µM.
Take `O=[N+]([O-])c1cc(I)cc(/C=N/NS(=O)(=O)c2ccc(F)cc2)c1O`: the TGI in experiment [7] is 48.8 µM; in experiment [1], > 100 µM; in experiment [8], 57.9 µM; in experiment [2] it was 86.7 µM; in [3], 52.2 µM; in experiment [4], 43.1 µM. In experiment [5], this compound returned a TGI of 69 µM.
Consider `Oc1cccc2cccnc12`, for which the TGI in experiment [7] is 7.98 µM; in experiment [1], > 100 µM; in [4], > 100 µM; in experiment [9] it was > 100 µM.
On to `CC1=NC(C)=C(/C(C)=N/NC(=O)c2ccccc2O)C(C)/C1=C(/C)NNC(=O)c1ccccc1O` (stereo not given), for which the TGI is 85.9 µM in [6]; > 100 µM in experiment [1]; > 100 µM in experiment [8]; > 100 µM in experiment [2]; 44.1 µM in experiment [3]; > 100 µM in experiment [4]. Besides, the TGI in [5] was > 100 µM.
In the case of `C=C1C2CC(OC(C)=O)C3(C)C(c4ccoc4)OC(=O)[C@@H](O)[C@]13OC1C[C@H](OC(C)=O)C(C)(C)[C@H](C(O)C(=O)OC)[C@]12C` (stereo not given in full), the TGI in experiment [7], in [1], in experiment [2], in [3], in experiment [4] and in experiment [5] was > 100 µM each time.
Regarding `CC(C)(C)c1cc[n+](C[n+]2ccc(C(C)(C)C)cc2)cc1`, the TGI in [9] is > 100 µM.
For the compound `O=C(N/C(=C\c1cccc([N+](=O)[O-])c1)c1nc2c3c(ccc2[nH]1)C(=O)c1ccccc1C3=O)c1ccccc1`, the TGI in [6], in [1], in experiment [3], in experiment [4] and in [5] was > 100 µM each time.
`C/C(=N\NC(=O)c1ccccc1O)c1c(O)cc(C)oc1=O`: the TGI in experiment [1], in experiment [2], in experiment [3], in experiment [4] and in experiment [5] was > 100 µM each time.
`Nc1ccc(C(=O)CC2(O)C(=O)Nc3ccccc32)cc1` (stereo not given): the TGI in [6], in experiment [7], in experiment [1], in experiment [2], in experiment [3] and in experiment [4] was > 100 µM in each case. Also, the TGI in experiment [5] is > 100 µM.
For `O=C1CC=C2C3CC4N(CCC45c4ccccc4N1C25)C/C3=C\CO` (stereo not given), the TGI in experiment [9] was > 100 µM.
On to `Oc1cccc2ccc(SSc3ccc4cccc(O)c4n3)nc12`, for which the TGI in [9] stood at 38.6 µM.
Take `CN1C(c2ccccc2)CC(=NO)CC1c1ccccc1` (stereo not given): the TGI in experiment [7], in experiment [1], in experiment [8], in [2], in experiment [3] and in experiment [4] was > 100 µM throughout. For the same compound, the TGI in [5] is > 100 µM. Also, the GI50 in experiment [9] was 76 µM.
For `CCCCCCCCCCNC(=S)OC`, the TGI in experiment [7] was > 100 µM; in experiment [1] it was > 100 µM; in experiment [8] it was > 100 µM; in experiment [2], 69.4 µM; in experiment [3], 44.9 µM; in [4], > 100 µM. In experiment [5], the TGI was > 100 µM.
`Cc1ccc(NC(=O)CCc2nnc3s/c(=C\C=C\c4ccccc4)c(=O)n23)cc1`: the TGI in experiment [6], in experiment [7], in [1], in [8], in [2] and in [3] was > 100 µM each time. Moreover, the TGI in experiment [4], in experiment [9] and in [5] was > 100 µM each time.
Consider `Cn1nc(-c2ccccc2)c2c(/C=C/c3ccc(F)cc3)onc2c1=O`, for which the TGI in [6], in experiment [7], in experiment [1], in experiment [2] and in experiment [4] was > 100 µM in each case.
As for `CN1CCN(c2ccncc2S(=O)(=O)N2CCN(C)CC2)CC1`, the TGI in [9] is > 100 µM.
Consider `CC(=O)O[C@H]1CC[C@@]2(C)C(=CC[C@H]3C(CC#N)[C@@](C)(C#N)CCC32)C1` (stereo not given in full), for which the TGI in experiment [6], in experiment [7], in experiment [1], in [2], in experiment [3] and in [4] was > 100 µM each time. The TGI in experiment [5] is > 100 µM.
With `COc1cccc(/C=C2\N=C(Cl)OC2=O)c1O`, the TGI in experiment [6], in [7], in experiment [1], in [3], in [4] and in experiment [5] was > 100 µM in each case.
For the compound `Cn1c(=O)nc2n(-c3ccc(F)c(F)c3)c3ccccc3nc-2c1=O`, the TGI in [6] was 36.2 µM; in [7], 36.9 µM; in experiment [1], 85.3 µM; in [8], 62.4 µM; in experiment [2], 3.44 µM; in experiment [3], 18 µM. Moreover, the TGI in experiment [4] was 64.9 µM; in experiment [5] it was 54.6 µM.
As to `CCCC(=O)Oc1ccc(/C=N/NC(N)=S)nc1`, the TGI in [7], in [1], in experiment [2], in [3], in [4] and in [5] was > 100 µM throughout.
For `Clc1ccc(-c2nnc(-c3nn(-c4ccccc4)c4nc5ccccc5nc34)o2)cc1`, the TGI is 64.6 µM in [6]; > 100 µM in [7]; > 100 µM in experiment [1]; > 100 µM in experiment [2]; > 100 µM in experiment [3]; > 100 µM in experiment [4]. In [5], the TGI is > 100 µM.
In the case of `Cn1cnc(SC2=CC(=O)C=C3S[C@H]4C[C@@]23c2c(c(O)c3c5c2=NCCC=5C=N3)N4)c1CC(N)C(=O)O` (stereo not given in full), the GI50 is 17.6 µM in [6]; 7.33 µM in experiment [7]; 12.6 µM in experiment [1]; 2 µM in experiment [9]; 15.3 µM in experiment [5]. For the same compound, the TGI in experiment [6] was 31.4 µM; in experiment [7] it was 20.3 µM; in experiment [1] it was 26.3 µM; in experiment [2], 3.89 µM; in [3], 4.31 µM; in experiment [9], 3.63 µM. Also, the TGI in experiment [5] came to 38.4 µM.
Regarding `CCOC(=O)NC(=O)c1cn(C2CCCCC2)c(=O)n(C)c1=O`, the TGI in experiment [7], in experiment [1], in experiment [8], in experiment [2], in experiment [3] and in [4] was > 100 µM each time. The TGI in [5] is > 100 µM.
Turning to `O=C(O)c1nn(-c2ccc(Cl)cc2)c2c1C(=O)c1ccccc1C2=O`, the TGI in experiment [9] was > 100 µM.
On to `COc1nc(NC2OC(COC(C)=O)C(OC(C)=O)C(OC(C)=O)C2OC(C)=O)c(N=C(C)C(C)=O)c(=O)n1C` (stereo not given), for which the TGI in experiment [6], in experiment [1], in [2], in experiment [3], in experiment [4] and in experiment [5] was > 100 µM in each case.
Turning to `CSc1nc2c(nc(N)n2C2OC(CO)C(O)C(O)C2O)c(=O)[nH]1` (stereo not given), the TGI in experiment [6], in experiment [1], in experiment [8], in experiment [2], in [3] and in [4] was > 100 µM throughout. Also, the TGI in [5] is > 100 µM.
Take `CC(=O)N(N=O)c1ccc(N(N=O)C(C)=O)cc1`: the TGI in experiment [7], in experiment [1], in experiment [2], in [3], in [4] and in experiment [5] was > 100 µM each time.
